In series [1] the test system is Clostridium ramosum. Description: MIC, anaerobic bacteria. The note with it: Thomasclavelia ramosa. The class given is cell-based.
Series [2] has as its system Veillonella alcalescens. The series is described as follows: MIC, anaerobic bacteria. The note with it: Veillonella parvula. The format is cell-based.
Series [3] can be described thus: Electrometric titration. The format is physicochemical. The settings on record: 66 percent dimethylformamide in water. The procedure:
Antibiotic A-2315 factor A is a white, amorphous solid, having a molecular weight of 503.2638, as determined by mass spectrometry, and an elemental analysis as follows: 61.51 percent carbon, 7.51 percent hydrogen, 8.69 percent nitrogen, and 21.53 percent oxygen. […] The specific rotation of A-2315 factor A is -132° when determined at a temperature of 27°C. in methanol in which the concentration of the antibiotic is 0.375 percent on a weight per volume basis.
Antibiotic A-2315 factor B is a white, amorphous solid, having a molecular weight of 501, as determined by mass spectrometry, and an elemental analysis as follows: 61.81 percent carbon, 7.02 percent hydrogen, 8.81 percent nitrogen, and 21.42 percent oxygen.
Antibiotic A-2315 factor C is a white, amorphous solid, having a molecular weight of 487, as determined by mass spectrometry, and an elemental analysis as follows: 61.04 percent carbon, 7.00 percent hydrogen, 7.96 percent nitrogen, and 22.61 percent oxygen. Based on elemental analysis and molecular weight, an empirical formula of C25 H33 N3 O7 is assigned to factor C.

In series [4] the test system is Streptococcus pyogenes. The series is described as follows: Disc-plate MIC. The settings on record: Disc-Plate Method.
In series [5] the test system is Bacillus subtilis. The series is described as follows: Disc-plate MIC. The note with it: Disc-Plate Method.
Series [6] concerns Klebsiella pneumoniae KA14. The series is described as follows: Disc-plate MIC. The settings on record: Disc-Plate Method.

Converted amounts (≈) assume the structure as drawn.

For `CC1=CC(O)CC(O)Cc2nc(co2)C(=O)NC(C)C(=O)OC(C(C)C)C(C)C=CC(=O)NCC=C1` (stereo not drawn) [Factor A], the MIC in series [1] stood at 8 µg/mL (≈ 15.9 µM); in series [2] it was 16 µg/mL (≈ 31.8 µM); in series [4], 0.012 μg/disc; in series [5], 50. μg/disc; in series [6], 50.0 μg/disc. The titratable groups result in series [3] is given as “did not indicate the presence of titratable groups”.

These data come from patent US3968204A, “Antibiotic A-2315” (priority 1975, dated 1976).
